What was measured:
[1] = test system: α1β1-3γ2L GABAA receptors; assay: Modulation of GABA-evoked currents in Xenopus oocytes (2-electrode voltage clamp), GABA subunit selectivity; assay type: cell-based; settings: human GABAA receptor subunits expressed in Xenopus oocytes; for GABA subunit selectivity: GABA EC10 control currents, FIGS. 4A and 4B
Description: GABA subunit selectivity of etifoxine enantiomers was measured based on their ability to modulate the GABA-evoked currents in Xenopus oocytes.
Receptor mRNA preparation: cDNA clones encoding human GABAA receptor subunits were obtained from commercial sources. mRNA was prepared using conventional techniques with commercially-available “mMessage machine” kits (Ambion). Individual mRNAs (˜1 μg/μL) were stored in aliquots at −80° C.
mRNA injections into Xenopus oocytes: Preparation and micro-injection of oocytes were performed as reported in detail previously (see, Whittemore et al., 1996, Mol Pharmacol 50: 1364-1375). Individual oocytes were injected with 5-50 ng of mRNA at 5:1:1 (GABA). For example, individual oocytes were injected with a 5:1:1 mixture of α1, β1-3, and γ2L (˜5-50 ng of each subunit per cell) to produce expression of α1β1-3γ2L GABAA receptors. Following injections, oocytes were maintained at 16-17° C. in Barth's medium containing (in mM): NaCl, 88; KCl, 1; CaCl2, 0.41; Ca(NO3)2, 0.33; MgSO4, 0.82; NaHCO3, 2.4; HEPES 5; pH=7.4, with 0.1 mg/ml gentamycin sulfate.
Oocyte Electrophysiological recordings: Individual oocytes were placed on a nylon mesh in a 35 mm dish, perfused with frog Ringer (see, Whittemore et al., supra), and voltage clamped at a holding potential of −70 mV. In some cases, simple voltage steps were made to test voltage-dependence. Oocytes were perfused with fresh Ringer or exposed to GABA ±modulators using a custom-made gravity-driven perfusion system consisting of a linear array of 3 capillary tubes. The concentration of GABA used to evoke control currents was adjusted for each individual oocyte to be ˜10% of the maximal current (EC10) measured in that cell. The concentration of GABA required to evoke EC10 ‘control’ currents varied between ˜2 and 12 μM. […] Data are expressed as % of control currents (% modulation=100*[(modulated current/GABA control current)−1].

[2] = test system: mouse formalin pain model; assay: Mouse formalin test, late phase licking (analgesic effect); assay type: in vivo; settings: 3 mg/kg i.p., 30 minutes prior to formalin; male NSA mice; FIG. 5
Description: The analgesic effect of test compounds was assessed in a mouse formalin pain model (Hole et al., 1993, Pain 53:247-254). Male NSA mice weighing between 27 and 30 g were housed with access to food and water ad libitum until the test date. On the day of testing, they were given a period of 1 h to adjust to the test chamber. Test compounds or vehicle control (75% polyethylene glycol in 5% dextrose+water) were administered i.p. at 30 minutes prior to the administration of formalin. A solution of 20 μl of 2.5% formalin was then injected subcutaneously into the dorsal side of the hind paw of the test mouse. Immediately following formalin injection, the mice were observed over the next 50 min and the time spent licking the injected hind paw was recorded. The observation time was broken down into 5 minute “bins”, with 10 bins in total. The first 5-min bin is the early phase, considered to be reflective of acute pain. Bins three to ten make up the late phase, considered a measure of chronic inflammatory pain. The results for the late phase are expressed as the averaged mean time (in seconds) that mice spent licking in a 5-min period.
Dose-response relationship was conducted in the range of 3 to 60 mg/kg. Statistical differences in response were determined by one-way analysis of variance with the Dunnett's post-hoc test by using the Prism3 statistical software (GraphPad, Inc., San Diego, Calif.).

[3] = In vivo racemization study, plasma enantiomers by chiral LC-MS/MS; parameters: species or system mouse; settings: 30 mg/kg perorally, NSA mice, plasma 30 minutes post dose; FIG. 6A
Description: Pure S-etifoxine was administered at 30 mg/kg, perorally, to NSA mice. The desired enantiomer was dissolved in PEG at a concentration of 15 mg/mL and a dose of 2 mL/kg was administered perorally to overnight fasted mice. Plasma concentration of etifoxine enantiomers was determined by LC-MS/MS analysis.
A mixture of 100 μL plasma and 200 μL water in a 6-mL plastic culture tube was vortexed briefly, for about 10 seconds. To this was added 1.5 mL methyl tert-butyl ether and 1.5 mL hexane and vortexed briefly for about 10 seconds. The mixture was centrifuged for about 10 minutes and frozen at −80° C. for 10 minutes. The organic layer was collected and dried under nitrogen at 37° C. The solid was resuspended in 250 μL methanol, vortexed and transferred to 96-well plate.
The samples were analyzed by LC-MS/MS on a […] CHIRALCEL® OD (lot #OD00CE-FJ033) column at room temperature. A mixture of 75% hexane, 25% isopropyl alcohol and 0.05% […] was used as an isocratic mobile phase. The flow rate was set at 1 mL/min at room temperature. Racemic etifoxine spiked into plasma was used as a reference standard. FIGS. 6A and 6B provide representative chromatograms of extracted plasma sample (pure S-etifoxine, dosed at 30 mg/kg/po at 30 minutes post dose) and racemic standard spiked into plasma (100 ng/mL), respectively. […]

Compound | GABA subunit selectivity [1] | selectivity between β2 and β1 subunit ([1]; FIG. 4B) | activity in the formalin test (late phase licking) [2] | racemization in vivo (R-etifoxine in plasma) [3]
CCN=C1Nc2ccc(Cl)cc2[C@@](C)(c2ccccc2)O1 [R-etifoxine] | little or no GABA subunit selectivity | – | – | –
CCNC1=Nc2ccc(Cl)cc2C(C)(c2ccccc2)O1 (centres unmarked) [S-etifoxine] | shows selectivity for GABA receptor comprising β subunit | more selective for β2 subunit than β1 subunit | active | little or no racemization in vivo
